According to patent US8859614B2 (University of Nebraska—Lincoln, priority 2008, dated 2014):
Where “and” joins values, the source holds several entries; their conditions need not be identical. Equal values may be shown once. Entries after “also recorded” stand apart in the source; their conditions may differ.

What was measured:
[1] = tested on: murine breast cancer cell line derived from Kras* mice; experiment: MTT cell growth assay on a Kras* breast cancer cell line; format: cell-based, mouse; settings: for Inhibition of growth of the Kras* breast cancer cell line (in words) / MTT colorimetric reading reflecting cell density, Day 2, Average / MTT colorimetric reading reflecting cell density, Day 2, individual duplicate wells: 500 nM, 48 h; for MTT colorimetric reading reflecting cell density, Day 2, Average: average of duplicates, Day 0 0.3675, no drug 0.792; for MTT colorimetric reading reflecting cell density, Day 2, individual duplicate wells: wells 1 and 2, Day 0 0.373/0.362, no drug 0.959/0.625
Method: A murine breast cancer cell line derived from Kras* mice was used to assay the effect of IGF1RK inhibitors. Approximately 30,000 cells/well were plated in a 24-well plate which corresponds to 20% confluence. The next day (Day 0 for the experiment) two of wells were treated with MTT (Thiazol Blue Tetrazolium), a substrate used in a colorimetric metabolic assay that reflects cell density. […] Forty-eight hours later the duplicate wells were assayed.

[2] = biological target: T1, human Insulin-like Growth Factor I Receptor Kinase (IGF1 RK) domain (Homo sapiens, UniProt P08069); settings: background statement; cited from earlier work
T1 construct: human Insulin-like Growth Factor I Receptor Kinase (IGF1 RK) domain

MDA-MB-231 cells [3] = experiment: MDA-MB-231 in vitro cell viability (MTT assay); format: cell-based, human; settings: PPP 500 nM; MTT on days 2, 4 and 6
Description: FIG. 8A-C. In vitro inhibition of Igf1r action. Representative experiments of pharmacological inhibition of IGF1R in MDA-MB-231 cells by picropodophyllin (A) or by IGF1R knockdown using a dominant-negative construct (B) or siRNA (C). The absorbance (mean values±S.E.M.) reflects cell numbers estimated from duplicate samples using the MTT assay (see Experimental Procedures). […] (B) Plasmid 486Stop (encoding dominant-negative IGF1R) or a control plasmid (pcDNA3) were introduced in MDA-MB-231 cells by nucleofection following the manufacturer's protocol (1.5 μg of plasmid DNA per […]; Amaxa Biosystems). The same method was used to introduce into these cells a 19-bp RNA duplex (R4) targeting IGR1R mRNA or a scrambled control duplex (Scr4; see SI Materials and Methods, for details). […]
Details of the preclinical trial using picropodophyllin synthesized as described (Buchardt O, et al. J. Pharm. Sci. (1986), 75:1076-1080) and Erlotinib (purchased from Hwasun Biotechnology Co) are described in Results. […] The lengths of axes were determined microscopically from sections of tumor nodules using a computer assisted morphometry system (SpotAdvanced VS. 4.0.1, Nikon Eclipse E400). […] Cell viability (duplicates) was measured on days 2, 4 and 6 by using the Thiazolyl Blue Tetrazolium Bromide (MTT) colorimetric assay (Mosmann T, J. Immunol. Methods (1983), 65:55-63).

[4] = tested on: Kras*-induced mammary carcinomas; experiment: Drug treatment of Kras*-induced mouse mammary carcinomas; format: in vivo
insulin receptor = insulin receptor (Homo sapiens, UniProt P06213); settings: Girnita 2004; Vasilcanu 2008; cited from earlier work
[5] = tested on: Kras*-induced mammary carcinomas; experiment: Drug treatment of Kras*-induced mouse mammary carcinomas; format: in vivo; settings: for Macroscopic and histopathological effect on tumors and tumor components (in words): 3 weeks of treatment; for Tumor volume per gland / Tumor volume per gland (Table 10): Mean ± S.E.M.; for Tumor volume per gland / Tumor volume per gland, % of control (vehicle): i.p. once daily for 3 weeks, PPP 30 mg/kg, Erlotinib 50 mg/kg; for Tumor volume per gland: vehicle 217.8 ± 65.6; for Tumor volume per gland, % of control (vehicle): vehicle = 100; for Tumor volume per gland (Table 10): pooled vehicle controls 243.3 ± 68.9 (9 mice); for Potency relative to PPP against Kras*-induced mammary carcinomas: from % tumor volume versus control; for Tumor volume per gland, % of pooled vehicle control (Table 10): pooled vehicle control = 100
Method: (§1) Details of the preclinical trial using picropodophyllin synthesized as described (Buchardt O, et al. J. Pharm. Sci. (1986), 75:1076-1080) and Erlotinib (purchased from Hwasun Biotechnology Co) are described in Results. The drugs were dissolved in DMSO and cremophor (9:1) and injected intraperitoneally. To calculate tumor volumes, the formula for a prolate spheroid (π/6×a×b2 or ˜a×b2/2, where a and b are the major and minor axis, respectively) was used. The lengths of axes were determined microscopically from sections of tumor nodules using a computer assisted morphometry system (SpotAdvanced VS. 4.0.1, Nikon Eclipse E400). For xenograft experiments, 5×10^6 MDA-MB-231 cells were injected bilaterally into the fat pads of mammary glands 3 and 4 of female SCID/NOD mice. […] For in vitro experiments, MDA-MB-231 cells were grown in DMEM supplemented with 10% fetal bovine serum. […] Cell viability (duplicates) was measured on days 2, 4 and 6 by using the Thiazolyl Blue Tetrazolium Bromide (MTT) colorimetric assay (Mosmann T, J. Immunol. Methods (1983), 65:55-63).
First, the tumors developing in each gland tended to be multifocal and uneven, and progressively coalesced into larger masses precluding reliable evaluation.
After 21 days of treatment, the mice are sacrificed, weighed, and the initial tumors measured individually. In addition, tumors which were not palpable at the time of initial palpation, but had grown during the therapy period, are also isolated.
The efficacy of compounds 18 “(NB3)” and 21 “(NB6)” to ameliorate Kras*-induced mouse mammary carcinomas was tested. While testing NB3 and NB6 (4 mice each), 2 controls were added (2 tumor-bearing mice treated with vehicle).

MDA-MB-231 cells [6] = experiment: MDA-MB-231 orthotopic xenografts in SCID/NOD mice; format: in vivo, human
Method: as §1
Nevertheless, in conjunction with the mouse data, these observations provide strong justification for further evaluations of the drug against human breast cancer.

Chain of insulin receptor (P06213 28-1382, species assumed): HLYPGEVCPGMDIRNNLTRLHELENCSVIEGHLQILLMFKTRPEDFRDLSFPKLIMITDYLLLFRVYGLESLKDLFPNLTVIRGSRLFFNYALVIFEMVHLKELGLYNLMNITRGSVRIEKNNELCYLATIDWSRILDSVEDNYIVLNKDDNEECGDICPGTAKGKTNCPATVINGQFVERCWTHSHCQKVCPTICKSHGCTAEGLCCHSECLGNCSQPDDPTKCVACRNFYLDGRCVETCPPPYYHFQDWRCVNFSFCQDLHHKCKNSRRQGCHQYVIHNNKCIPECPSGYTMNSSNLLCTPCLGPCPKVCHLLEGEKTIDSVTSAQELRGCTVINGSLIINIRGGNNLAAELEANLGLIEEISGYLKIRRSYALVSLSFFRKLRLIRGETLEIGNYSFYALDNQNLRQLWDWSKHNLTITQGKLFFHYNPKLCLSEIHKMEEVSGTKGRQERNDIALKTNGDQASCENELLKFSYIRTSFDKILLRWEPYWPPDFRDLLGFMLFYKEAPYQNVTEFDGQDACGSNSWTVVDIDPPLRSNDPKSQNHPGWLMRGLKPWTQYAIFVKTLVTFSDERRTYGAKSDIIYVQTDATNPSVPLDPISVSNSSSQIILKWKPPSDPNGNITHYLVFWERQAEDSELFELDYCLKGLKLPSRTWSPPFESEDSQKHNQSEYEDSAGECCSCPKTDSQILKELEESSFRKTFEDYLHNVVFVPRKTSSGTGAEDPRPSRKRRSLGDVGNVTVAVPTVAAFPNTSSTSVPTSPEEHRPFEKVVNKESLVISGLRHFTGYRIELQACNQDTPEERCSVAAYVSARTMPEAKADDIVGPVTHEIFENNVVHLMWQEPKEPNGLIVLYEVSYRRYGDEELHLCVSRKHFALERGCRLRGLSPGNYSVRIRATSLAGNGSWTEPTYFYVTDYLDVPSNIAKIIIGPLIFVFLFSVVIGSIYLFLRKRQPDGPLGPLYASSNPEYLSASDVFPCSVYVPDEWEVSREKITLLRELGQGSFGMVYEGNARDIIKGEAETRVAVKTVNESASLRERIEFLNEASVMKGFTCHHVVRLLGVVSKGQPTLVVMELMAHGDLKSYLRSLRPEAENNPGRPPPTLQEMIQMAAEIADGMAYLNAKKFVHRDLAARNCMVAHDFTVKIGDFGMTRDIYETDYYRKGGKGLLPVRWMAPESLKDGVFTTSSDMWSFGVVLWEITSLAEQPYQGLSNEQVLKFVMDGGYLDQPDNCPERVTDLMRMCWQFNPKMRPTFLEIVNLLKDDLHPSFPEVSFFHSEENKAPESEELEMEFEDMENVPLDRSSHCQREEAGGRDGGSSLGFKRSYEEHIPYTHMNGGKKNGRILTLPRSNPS
T1 sequence (P08069 999-1274 limits assumed): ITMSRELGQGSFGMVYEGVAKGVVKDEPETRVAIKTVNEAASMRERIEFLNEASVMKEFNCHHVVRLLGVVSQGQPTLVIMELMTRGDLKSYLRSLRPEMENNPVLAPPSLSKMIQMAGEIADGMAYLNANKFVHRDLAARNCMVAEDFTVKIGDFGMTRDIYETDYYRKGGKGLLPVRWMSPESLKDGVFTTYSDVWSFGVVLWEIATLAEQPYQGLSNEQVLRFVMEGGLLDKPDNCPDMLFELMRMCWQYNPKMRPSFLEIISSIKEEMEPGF

SMILES | Inhibition of growth of the Kras* breast cancer cell line (in words) [1] | Macroscopic and histopathological effect on tumors and tumor components (in words) [5] | Tumor volume per gland [5] | Tumor volume per gland, % of control (vehicle) [5] | MTT colorimetric reading reflecting cell density, Day 2, Average [1] | MTT colorimetric reading reflecting cell density, Day 2, individual duplicate wells [1] | Tumor volume per gland (Table 10) [5] | Potency relative to PPP against Kras*-induced mammary carcinomas [5] | Tumor volume per gland, % of pooled vehicle control (Table 10) [5] | also measured
COc1ccc([C@@H]2c3cc4c(cc3[C@H](O)C3COC(=O)[C@H]32)OCO4)cc1 (stereo partly drawn) [Compound 19, 3′,5′-Didemethoxy-(−)-picropodophyllin] | essentially no activity | – | – | – | – | – | – | – | – | –
COc1cc([C@@H]2c3cc4c(cc3[C@H](O)C3COC(=O)[C@H]32)OCO4)cc(OC)c1OC (single isomer, unassigned; (-)) [PPP, (−)-picropodophyllin] | – | marked reduction or even absence of the pale and squamous cell components; also recorded: dramatically smaller; also recorded: diminishes the size of pale cell tumors | 16.0 ± 9.1 mm^3 | ~7% and 7.3% | 0.4775 | 0.478 and 0.477 | – | – | – | Effect on IGF1 RK kinase activity (in words) [2]: inhibits its kinase activity; In vitro viability of MDA-MB-231 cells (in words) (MDA-MB-231 cells [3]): drastically reduced; Increase in apoptosis in the pale component (activated caspase 3 immunohistochemistry) versus vehicle ([4]; 3 days of administration): ~9 fold; Proliferation (proliferation indices) in tumors ([4]; 3 days of treatment): at control levels; Effect on the homologous insulin receptor (in words) (insulin receptor): not affected; Total tumor volume per mouse ([5]; after 21 days of daily treatment, vehicle 653±219, p=0.05): 54±28 mm^3; % tumor volume in comparison with the control, normalized to the new control data ([5]; previous PPP value re-normalized to pooled vehicle control): 6.5%; Tumor volume per gland, xenografts (MDA-MB-231 cells [6]; Mean ± S.E.M., SCID/NOD mice, PPP i.p. for 3 weeks, vehicle 304 ± 40.8): 215 ± 18.6 mm^3; Xenograft tumor growth versus vehicle-treated controls (in words) (MDA-MB-231 cells [6]; NOD/SCID mice, orthotopically injected MDA-MB-231 cells): attenuated; Tumor volume per gland, xenografts, % of vehicle (MDA-MB-231 cells [6]; SCID/NOD mice, PPP i.p. for 3 weeks, vehicle = 100): 70.7%
COc1cc(OC)cc([C@@H]2c3cc4c(cc3[C@H](O)C3COC(=O)[C@H]32)OCO4)c1 (stereo partly drawn) [Compound 21, 4′-Demethoxy-(−)-picropodophyllin] | – | – | – | – | 0.4845 | 0.505 and 0.464 | 2.1 ± 1.0 mm^3 | 7 times | 0.9% | –
COc1cccc([C@@H]2c3cc4c(cc3[C@H](O)C3COC(=O)[C@H]32)OCO4)c1 (stereo partly drawn) [Compound 18, 4′,5′-Didemethoxy-(−)-picropodophyllin] | as effective as PPP | – | – | – | 0.5245 | 0.483 and 0.566 | 20.9 ± 10.8 mm^3 | same potency as PPP | 6.5% | IC50 ([1]; Mus musculus, read-out: IC50 for growth inhibition of Kras* breast cancer cell line): ~400 nM
C#Cc1cccc(Nc2ncnc3cc(OCCOC)c(OCCOC)cc23)c1 [Erlotinib] | – | reduced predominantly the pale cell component | 66.9 ± 29.3 mm^3 | 30.7% | – | – | – | – | – | –
